Laboratory results as given in patent US20040097567A1, “Pharmaceutical composition” (priority 2001, published 2004).

Tested on: diabetic rats, n0STZ
Assay: Oral glucose tolerance test (OGTT) in n0STZ diabetic rats: plasmatic glycaemia and insulinaemia
Type: in vivo, rat
Conditions: for Plasmatic insulin / Plasmatic glucose / Plasmatic glucose AUC / Plasmatic insulin AUC: OGTT glucose 2 g/kg, products given 2 hours before, Compound A 12.5 mg/kg, glibenclamide 2 mg/kg; for Plasmatic glucose AUC / Plasmatic insulin AUC: AUC over 0-120 min; for effect on carbohydrate tolerance: acute administration, 12.5 mg/kg compound A or 2 mg/kg glibenclamide
Experimental: Diabetes is induced in male rats (source: Iffa Credo) by intravenous administration of streptozotocin on the day of birth.
The rats are selected according to the criterion of hyperglycaemia 170±15 mg/dl.
The animals are grouped into 5 rats per batch and divided into 4 batches
The products are administered 2 hours before the glucose tolerance test, at a rate of 12.5 mg/kg for 4-[2-(2,4-dioxothiazolidin-5-yl)ethoxy]benzonitrile, 2 mg/kg for glibenclamide and the combination of the 2 products at the doses used in monotherapy.
The glucose tolerance test (OGTT) is performed on the conscious animal and consists in administering glucose at a rate of 2 g/kg. The plasmatic glucose clearance is analysed after this glucose load, over 2 hours (0-10-20-30-45-60-90 and 120 min).
In addition to plasmatic glycaemia, insulinaemia is also determined.

Compound: N#Cc1ccc(OCCC2SC(=O)NC2=O)cc1 (stereo not shown) [Compound A, 4-[2-(2,4-dioxothiazolidin-5-yl)ethoxy]benzonitrile]
- Plasmatic insulin (0 min): 47.2 μU/ml
- Plasmatic glucose (0 min, 5 rats/batch): 160 mg/dL
- Plasmatic glucose (10 min): 321 mg/dL
- Plasmatic insulin (10 min): 100.8 μU/ml
- Plasmatic glucose (20 min): 381 mg/dL
- Plasmatic insulin (20 min): 89.6 μU/ml
- Plasmatic glucose (30 min): 418 mg/dL
- Plasmatic insulin (30 min): 84.5 μU/ml
- Plasmatic glucose (45 min): 424 mg/dL
- Plasmatic insulin (45 min): 74.6 μU/ml
- Plasmatic glucose (60 min): 447 mg/dL
- Plasmatic insulin (60 min): 77 μU/ml
- Plasmatic glucose (90 min): 419 mg/dL
- Plasmatic insulin (90 min): 93.8 μU/ml
- Plasmatic glucose (120 min): 378 mg/dL
- Plasmatic insulin (120 min): 101.5 μU/ml
- Plasmatic glucose AUC: 47702.5
- Plasmatic insulin AUC: 10384.25
- decrease observed (carbohydrate tolerance, glucose curve vs control) (acute 12.5 mg/kg, n0STZ rats, OGTT): 6%
- effect on carbohydrate tolerance (n0STZ rats, OGTT): little or no effect

Compound: COc1ccc(Cl)cc1C(=O)NCCc1ccc(S(=O)(=O)NC(=O)NC2CCCCC2)cc1 [Glibenclamide]
- Plasmatic insulin (0 min): 84.2 μU/ml
- Plasmatic glucose (0 min, 5 rats/batch): 138 mg/dL
- Plasmatic glucose (10 min): 312 mg/dL
- Plasmatic insulin (10 min): 116.9 μU/ml
- Plasmatic glucose (20 min): 407 mg/dL
- Plasmatic insulin (20 min): 129.4 μU/ml
- Plasmatic glucose (30 min): 470 mg/dL
- Plasmatic insulin (30 min): 105.8 μU/ml
- Plasmatic glucose (45 min): 520 mg/dL
- Plasmatic insulin (45 min): 100 μU/ml
- Plasmatic glucose (60 min): 513 mg/dL
- Plasmatic insulin (60 min): 88.3 μU/ml
- Plasmatic glucose (90 min): 507 mg/dL
- Plasmatic insulin (90 min): 92.5 μU/ml
- Plasmatic glucose (120 min): 448 mg/dL
- Plasmatic insulin (120 min): 97.5 μU/ml
- Plasmatic glucose AUC: 55027.5
- Plasmatic insulin AUC: 11930.75
- increase observed (carbohydrate tolerance, glucose curve vs control) (acute 2 mg/kg, n0STZ rats, OGTT): 6%
- effect on carbohydrate tolerance (n0STZ rats, OGTT): little or no effect
